Values quoted from earlier work in US20250090476A1, “PHARMACEUTICAL COMPOSITION AND BREXPIPRAZOLE ORALLY SOLUABLE FILM” (WISDOM PHARMACEUTICAL CO., LTD., priority 2022, published 2025).

For `O=c1ccc2ccc(OCCCCN3CCN(c4cccc5sccc45)CC3)cc2[nH]1` [Brexpiprazole], the solubility is listed as “low”.
